Three compounds from ChEMBL document CHEMBL1133426, “2-Substituted paullones: CDK1/cyclin B-inhibiting property and in vitro antiproliferative activity” (Bioorg Med Chem Lett, 2000) can be followed below.

For one assay, the system named is HCT-116. As to the kind of experiment: cells. It counts as functional. To be noted: Homo sapiens.
The nature of a further assay: cells. It counts as functional. To be noted: Homo sapiens.

Description for HCT-116: Inhibition of HCT116 colon cancer cell proliferation

For the compound `O=C1Cc2c([nH]c3ccc(C(F)(F)F)cc23)-c2cc(C#CC3(O)CCCCC3)ccc2N1`, the GI50 is 2.51 µM in the assay with HCT-116 and 2 µM in the assay “cells”.

As for `O=C1Cc2c([nH]c3ccc(C(F)(F)F)cc23)-c2cc(C#CCO)ccc2N1`, the values for the 50% growth inhibitory concentration (GI50) in the assay on HCT-116 and in “cells” were 3.16 µM and 12.6 µM, respectively. With `O=C1Cc2c([nH]c3ccc(Br)cc23)-c2ccccc2N1` [KENPAULLONE], it took 39.8 µM to inhibit growth in the assay “cells” by half (GI50).
